# Legend:
# [1] = Competitive slurries of polymorphs (XRPD of product); type: physicochemical
# Protocol: Form IV (10 mg) was placed in water (1 ml) with 10 mg of Form I and Form II and stirred overnight at ambient temperature. A second slurry was set up to also include a further polymorph. Mixtures were filtered under suction and dried in a vacuum oven (45° C.).
# The same experimental procedure was applied to a slurry involving Forms I, II, III and IV. The initial test was performed in water and a second was carried out in ethyl acetate. […] This work supports previous conclusions that Form II is the dominant form.
# [2] = Solubility in pure water of the polymorphs; conditions: 23° C.
# Protocol: The solubility in pure water of samples of the different polymorphs was assessed at 23° C.
structure (smiles),measurement,setting,value
"Cc1occc(=O)c1[O-].Cc1occc(=O)c1[O-].Cc1occc(=O)c1[O-].[Fe+3] [Form II, ferric maltol]",Form obtained from competitive slurry (XRPD),"[1]; Form IV with Form I and Form II, water, stirred overnight at ambient temperature",generated
same,Relative stability of forms concluded from competitive slurries,[1]; conclusion from competitive slurries,dominant form
same,Form obtained from competitive slurry (XRPD),"[1]; slurry of Forms I, II, III and IV, in water and in ethyl acetate",isolated
same,Solubility,[2],5900 µg/mL

# — patent US9802973B2, “Crystalline forms of ferric maltol” (SHIELD TX (UK) LTD., priority 2014, dated 2017)
